Measurements as given in patent publication US20250064990A1, “METHODS OF SCREENING FOR VMAT2 INHIBITORS” (Neurocrine Biosciences, Inc., priority 2021, published 2025).
Several values for one entry are separate records, joined by “and”; a condition that tells them apart may be missing. Equal entries are not always repeated. Where two headings read alike, the source gives them in different places.

How the values were obtained:
[1] = NBI-98782 concentration in cynomolgus monkey plasma by LC-MS/MS; type: in vivo, cynomolgus monkeys (Macaca fascicularis)
Experimental: During each scan, whole blood PK samples were collected (in K2 EDTA tubes) at pre-dose (−5 min), and post-dose at 4 (approximately 1 min after completion of bolus), 30, 60 (just prior to [^18F]AV-133 radiopharmaceutical administration), 90, 120, 150, 180 (end of scan) minutes after test article administration. PK samples were approximately 1 mL each (8 mL total, including pre-dose sample).
Plasma samples were processed using liquid-liquid extraction with the additional of a stable isotopic labeled internal standard ^13C-83198. Processed samples were chromatographically separated on a C18 reversed phase column and coupled to a Sciex API 4000 triple quadrupole mass spectrometer for detection.
Quantitation was performed using a weighted 1/×2 linear least squares regression analysis generated from calibration standards prepared on the day of extraction. The liquid-liquid extraction began with the addition of internal standard solution (10.0 μL of approximately 400 ng/mL of [^13C]-radiolabeled [^13C]-NBI-98854 (i.e., [^13C]-valbenazine) and [^13C]-NBI-83198 (a racemic mixture of two dihydrotetrabenazine enantiomers). After adding 50.0 μL of sodium carbonate solution (0.2 M) and 2.00 mL of methyl tert-butyl ether to all samples, the tubes were sealed, vortexed, and centrifuged. Subsequently, the organic layer was transferred to clean tubes and evaporated to dryness. The samples were then reconstituted with 150 μL of reconstitution solution (water/methanol/acetic acid; 80:20:0.2), sealed, vortexed, sonicated and centrifuged. The reconstituted extract was then transferred into a 96-well plate. […] A triple quadrupole mass spectrometer (Sciex API 4000) equipped with TurboIonSpray source was used in the positive ion mode.

VMAT2 [2] = molecular target: VMAT2 (Macaca fascicularis, UniProt A0A2K5UVB8); assay: VMAT2 occupancy in NHP brain after i.v. NBI-98782, [^18F]AV-133 PET; type: in vivo, cynomolgus monkeys (Macaca fascicularis); conditions: cynomolgus monkey
Chain of VMAT2 (Macaca fascicularis, UniProt A0A2K5UVB8) (A0A2K5UVB8 entry or part of it): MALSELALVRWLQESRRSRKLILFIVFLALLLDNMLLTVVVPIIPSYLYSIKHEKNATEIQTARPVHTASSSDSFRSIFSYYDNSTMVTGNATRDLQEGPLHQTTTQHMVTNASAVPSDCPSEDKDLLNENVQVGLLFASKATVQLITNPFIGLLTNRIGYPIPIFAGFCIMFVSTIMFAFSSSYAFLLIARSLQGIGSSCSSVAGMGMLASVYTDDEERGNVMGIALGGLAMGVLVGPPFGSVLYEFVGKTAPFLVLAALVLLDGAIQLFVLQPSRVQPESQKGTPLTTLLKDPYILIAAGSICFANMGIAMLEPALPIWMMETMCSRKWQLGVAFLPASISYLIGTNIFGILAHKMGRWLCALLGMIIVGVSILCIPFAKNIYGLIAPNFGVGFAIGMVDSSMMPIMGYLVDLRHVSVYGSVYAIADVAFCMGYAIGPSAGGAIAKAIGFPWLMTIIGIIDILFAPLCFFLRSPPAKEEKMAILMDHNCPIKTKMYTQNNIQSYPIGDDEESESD
From the text: A radioligand, [^18F]AV-133, has been used to image and quantify brain VMAT2 in vivo.
Two female non-naïve cynomolgus monkeys (Macaca fascicularis) were used in this study. The animals were judged to be in good health before the start of the study. At study origination, animals A7701 (Tag ID A5028) and A7702 (Tag ID A5029) were 4.45 kg/4 years 11 months and 4.75 kg/3 years 10 months, respectively.
Dynamic data were acquired in the MicroPET Focus-220 camera (Siemens Microsystems, Knoxville, TN). Emission data were collected for 120 min post-injection and reconstructed into a series of 33 frames and all standard corrections were applied: normalization, random, scatter and attenuation (via CT scan). Dynamic brain PET images were transferred and analyzed using the image processing PMOD software package v3.802 (PMOD Technologies, Zurich, Switzerland). The PET images were rigidly aligned to a previously acquired animal's brain T1 MRI and then spatially normalized to a common cynomolgus MRI template for anatomical brain region definition.
Volumes of interest (VOIs) defined in the cynomolgus template space (see e.g., Ballanger et al. Neuroimage, 2013, 77:26-43) were applied to the spatially normalized PET images to compute time-activity curves (TACs, kBq/cm^3) for caudate (0.96 cm^3), putamen (1.34 cm^3) and occipital (8.61 cm^3). TACs and images (averaged between 90-120 min) were presented in Standard Uptake Value (SUV) units (g/mL) normalized by the weight of the animal and the injected dose
Non-invasive Logan graphical analysis (start time of fit, t*=30 min) was used to estimate regional non-displaceable binding potential (BPND) using the TACs in the caudate and putamen, with the cerebellar cortex as the reference TAC. […] Target occupancy was calculated according to the Equation 2-1.
where h is the Hill slope (h=1.0) and C is the mean of observed plasma concentrations during the scanning interval (60 to 180 minutes post-dose).

VMAT2 [3] = molecular target: T1, VMAT2 (Homo sapiens, UniProt Q05940); conditions: Freeby et al., Mol. Imaging Biol. 2016; cited from earlier work
T1 sequence (Q05940 whole entry): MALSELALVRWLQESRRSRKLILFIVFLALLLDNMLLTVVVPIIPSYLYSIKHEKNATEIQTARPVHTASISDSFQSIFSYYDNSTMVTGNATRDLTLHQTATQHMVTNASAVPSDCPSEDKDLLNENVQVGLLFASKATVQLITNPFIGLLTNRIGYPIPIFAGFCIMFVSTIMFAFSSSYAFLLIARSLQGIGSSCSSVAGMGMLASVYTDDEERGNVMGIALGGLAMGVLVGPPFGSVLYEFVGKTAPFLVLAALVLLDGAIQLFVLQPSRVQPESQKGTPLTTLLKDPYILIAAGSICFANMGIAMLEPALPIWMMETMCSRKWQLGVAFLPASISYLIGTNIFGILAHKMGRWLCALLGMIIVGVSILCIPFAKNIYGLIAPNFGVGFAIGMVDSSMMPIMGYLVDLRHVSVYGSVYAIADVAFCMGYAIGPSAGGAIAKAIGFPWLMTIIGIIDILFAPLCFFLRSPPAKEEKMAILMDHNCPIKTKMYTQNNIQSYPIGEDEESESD

[4] = Adverse events in healthy volunteers receiving valbenazine; type: in vivo, human; conditions: 40-160 mg valbenazine
Experimental: Interim imaging and tolerability data in an ongoing study were collected and analyzed in cohorts of 2-4 healthy volunteers. For each scan, participants received an injection of the D2/D3 dopamine receptor agonist radioligand [^11C](+)4-propyl-3,4,4a,5,6,10b-hexahydro-2H-naphtho[1,2-b][1,4]oxazin-9-ol ([^11C]-PHNO), followed by 90 min of data acquisition using Siemens Biograph PET/CT. For post-valbenazine scans, participants received an oral dose of valbenazine 6-8 hours before the administration of [^11C]-PHNO, with PET imaging occurring around the time of maximal valbenazine plasma concentration. The binding potential relative to the non-displaceable binding (BPND) in the putamen, caudate, and ventral striatum, was used as the primary endpoint. The cerebellum was used as the reference region to estimate the regional BPND. Decreases in synaptic dopamine following valbenazine administration corresponded to an increase in [^11C]-PHNO BPND relative to baseline (ΔBPND). Plasma concentrations of valbenazine and (+)-α-dTBZ (dihydrotetrabenazine), the active metabolite of valbenazine, were measured at the start and end of each post-valbenazine PET scan. The mean plasma (+)-α-dTBZ concentration (Cave) was matched to the ΔBPND for each participant to provide an exposure-response curve.

VMAT2 [5] = assay: Estimated VMAT2 target occupancy and clinical observations in cynomolgus monkey; type: in vivo; conditions: ~30 min to 1 h post-dosing, at estimated 96%-98% VMAT2 target occupancy
From the text: As described below, there were adverse events at these doses, enabling a benchmarking of % TO values that could lead to adverse events.

synaptic dopamine = assay: Valbenazine effects on the dopamine system, [^11C]-PHNO PET; type: in vivo, human; conditions: 40-160 mg oral valbenazine, healthy volunteers, interim analysis, eight participants
From the text: By way of example only, in some embodiments, “synaptic dopamine” can be measured non-invasively as follows. Subjects receive an oral dose of a VMAT2 inhibitor before administration of [^11C]-PHNO, with PET imaging occurring around the time of maximal VMAT2 inhibitor plasma concentration. The binding potential relative to the non-displaceable binding (BPND) in the putamen, caudate, and ventral striatum, is used as the primary endpoint. The cerebellum is used as the reference region to estimate the regional BPND. The measured increases in [^11C]-PHNO BPND relative to baseline (ΔBPND) correspond to decreases in synaptic dopamine following VMAT2 inhibitor administration. Other radioligands can be used. Alternatively, in some embodiments, indirect measurements of synaptic dopamine can be achieved via invasive techniques such as methods described in Huang M., et al., Pharmacology, Biochemistry and Behavior 190 (2020) 172872; and Bosche S. L., et al., Frontiers in Neuroscience, November 2021|Volume 15|Article 728092.
Interim imaging and tolerability data in an ongoing study were collected and analyzed in cohorts of 2-4 healthy volunteers. […] Plasma concentrations of valbenazine and (+)-α-dTBZ (dihydrotetrabenazine), the active metabolite of valbenazine, were measured at the start and end of each post-valbenazine PET scan. […]

VMAT2 [6] = molecular target: T1, VMAT2; assay: Estimated VMAT2 target occupancy in humans for valbenazine from NHP PET free EC50 and human PK; type: in vivo; set-up: The free EC50 derived from NHP PET was then used to estimate % TO in humans; from tissue; host or cells: human brain in vivo (modelled, not imaged)

In the case of `COc1cc2c(cc1OC)[C@H]1C[C@@H](O)[C@H](CC(C)C)CN1CC2` [NBI-98782, (2R, 3R,11bR)-3-isobutyl-9,10-dimethoxy-1,3,4,6,7,11b-hexahydro-2H-pyrido[2,1-a]isoquinolin-2-ol], the “Mean ng/mL NBI-98782 Concentration during PET Scan (60-180 min)” value ([1]; A7701, total mass dose 0.04 mg/kg i.v.) was 2.9 ng/mL, the “Mean ng/mL NBI-98782 Concentration during PET Scan (60-180 min)” value ([1]; A7701, total mass dose 0.5 mg/kg i.v.) was 44.5 ng/mL and the “Mean ng/mL NBI-98782 Concentration during PET Scan (60-180 min)” value ([1]; A7702, total mass dose 0.016 mg/kg i.v.) was 1.7 ng/mL. For the same molecule, the “Mean ng/mL NBI-98782 Concentration during PET Scan (60-180 min)” value ([1]; A7702, total mass dose 0.13 mg/kg i.v.) was 14.9 ng/mL, the receptor occupancy at 0.04 mg/kg (VMAT2 [2]; iv, read-out: % Occ, animal A7701, Caudate, 0.04 mg/kg) was 59.1% and the receptor occupancy at 0.13 mg/kg (VMAT2 [2]; iv, read-out: % Occ, animal A7701, Caudate, 0.13 mg/kg) was 67.9%. The receptor occupancy at 0.5 mg/kg (VMAT2 [2]; iv, read-out: % Occ, animal A7701, Caudate, 0.5 mg/kg) was 89.4%, the receptor occupancy at 0.04 mg/kg (VMAT2 [2]; iv, read-out: % Occ, animal A7701, Putamen, 0.04 mg/kg) was 55.2% and the receptor occupancy at 0.13 mg/kg (VMAT2 [2]; iv, read-out: % Occ, animal A7701, Putamen, 0.13 mg/kg) was 70.8%. It also gave a receptor occupancy at 0.5 mg/kg (VMAT2 [2]; iv, read-out: % Occ, animal A7701, Putamen, 0.5 mg/kg) of 89.6%, a receptor occupancy at 0.016 mg/kg (VMAT2 [2]; iv, read-out: % Occ, animal A7702, Caudate, 0.016 mg/kg) of 18.7% and a receptor occupancy at 0.016 mg/kg (VMAT2 [2]; iv, read-out: % Occ, animal A7702, Putamen, 0.016 mg/kg) of 18.3%. The receptor occupancy at 0.13 mg/kg (VMAT2 [2]; iv, read-out: Occ, animal A7702, Caudate, 0.13 mg/kg) was 77.5%, the receptor occupancy at 0.13 mg/kg (VMAT2 [2]; iv, read-out: Occ, animal A7702, Putamen, 0.13 mg/kg) was 79.1% and the receptor occupancy at 0.04 mg/kg (VMAT2 [2]; read-out: Target Occupancy, Mean of Putamen and Caudate, A7701, total mass dose 0.04 mg/kg) was 57%. The receptor occupancy at 0.13 mg/kg (VMAT2 [2]; read-out: Target Occupancy, Mean of Putamen and Caudate, A7701, total mass dose 0.13 mg/kg) was 69%, the receptor occupancy at 0.5 mg/kg (VMAT2 [2]; read-out: Target Occupancy, Mean of Putamen and Caudate, A7701, total mass dose 0.5 mg/kg) was 90% and the receptor occupancy at 0.016 mg/kg (VMAT2 [2]; read-out: Target Occupancy, Mean of Putamen and Caudate, A7702, total mass dose 0.016 mg/kg) was 19%. The receptor occupancy at 0.13 mg/kg (VMAT2 [2]; read-out: Target Occupancy, Mean of Putamen and Caudate, A7702, total mass dose 0.13 mg/kg) was 78%.
In the case of `COc1cc2c(cc1OCCC[18F])CCN1C[C@@H](CC(C)C)[C@H](O)C[C@H]21` [[^18F]AV-133], the “Test-retest for BPND” value (VMAT2 [3]) is listed as 9.4%.
With `COc1cc2c(cc1OC)[C@H]1C[C@@H](OC(=O)[C@@H](N)C(C)C)[C@H](CC(C)C)CN1CC2` [valbenazine, (S)-2-amino-3-methyl-butyric acid (2R, 3R,11bR)-3-isobutyl-9,10-dimethoxy-1,3,4,6,7,11b-hexahydro-2H-pyrido[2,1-a]isoquinolin-2-yl ester] the Adverse events [4] was “consistent with the known safety and tolerability profile of valbenazine”, the clinical observations (VMAT2 [5]) was “partially closed eyes (ptosis) (in all monkeys), decreased activity (in ⅔ monkeys), and salivation (in 1 monkey)” and the “increase in [^11C]-PHNO ΔBPND” value (synaptic dopamine) was 21-44% and 20-40%. The “estimated VMAT2 occupancy maintained throughout each 24-hour period” value (VMAT2 [6]; doses clinically effective in tardive dyskinesia) was at least 73% and the receptor occupancy at 40 mg (VMAT2 [6]; valbenazine 40 mg once-daily, read-out: estimated target occupancy for Cave) was about 80%.
